From patent publication US20240409585A1, “MACROCYCLIC IMMUNOMODULATORS” (priority 2021, published 2024)
Numbered stars: 1 amine (or outer) side, 2 acyl side, 3 side chain; on linkers, the order of the positions; unused ones are H or OH. Bridge positions count the residues as written; N and C are the ends. Square brackets hold non-standard residues; d marks the D form. Peptide text beside a SMILES is read from it. * marks the point of attachment. Bip(4'-COOH) = N[C@@H](Cc1ccc(-c2ccc(C(=O)O)cc2)cc1)C(=O)O; Bip(4'-NHAc) = CC(=O)Nc1ccc(-c2ccc(C[C@H](N)C(=O)O)cc2)cc1; X1 = O=C(C[C@H](N[*:1])C(=O)[*:2])NS(=O)(=O)c1ccc(Cl)cc1F; X14 = O=C(C[C@H](N[*:1])C(=O)[*:2])NS(=O)(=O)c1ccc(F)cc1; X2 = O=C(C[C@H](N[*:1])C(=O)[*:2])NS(=O)(=O)c1ccc(Cl)cc1; X6 = O=C(C[C@H](N[*:1])C(=O)[*:2])NS(=O)(=O)c1ccccc1Cl; X7 = O=C(C[C@H](N[*:1])C(=O)[*:2])NS(=O)(=O)c1ccccc1F; Phe(3-CF3) = N[C@@H](Cc1cccc(C(F)(F)F)c1)C(=O)O; Ala(morpholin-4-yl) = N[C@@H](CN1CCOCC1)C(=O)O; Phe(4-CONH2) = NC(=O)c1ccc(C[C@H](N)C(=O)O)cc1; Phe(4-COOH) = N[C@@H](Cc1ccc(C(=O)O)cc1)C(=O)O; Bip = N[C@@H](Cc1ccc(-c2ccccc2)cc1)C(=O)O; Abu(3S-NH2) = C[C@H](N)[C@H](N)C(=O)O; Malonyl = O=C(CC(=O)[*:2])[*:1]; Cha = N[C@@H](CC1CCCCC1)C(=O)O; NTA = O=C(O)CN(CC(=O)O)CC(=O)*; Carboxymethyl = O=C(O)C*; NMeA = CN[C@@H](C)C(=O)O; Nle = CCCC[C@H](N)C(=O)O; Orn = NCCC[C@H](N)C(=O)O; Dab = NCC[C@H](N)C(=O)O

What was measured:
[1] = molecular target: T1, PE-labeled human PD-L1-Ig binding to Jurkat cell line over-expressing human PD-1 (Jurkat-PD-1) (Homo sapiens, UniProt Q15116); assay: Jurkat-PD-1 Cell Binding High-Content Screening Assay (CBA): Method 1; conditions: Jurkat-PD-1 cells, PE-labeled PD-L1-Ig; μM; read-out: CBA Method 1 μM
T1 construct: expressed in transfected cells; host or cells: Jurkat
T1 sequence (Q15116 25-288): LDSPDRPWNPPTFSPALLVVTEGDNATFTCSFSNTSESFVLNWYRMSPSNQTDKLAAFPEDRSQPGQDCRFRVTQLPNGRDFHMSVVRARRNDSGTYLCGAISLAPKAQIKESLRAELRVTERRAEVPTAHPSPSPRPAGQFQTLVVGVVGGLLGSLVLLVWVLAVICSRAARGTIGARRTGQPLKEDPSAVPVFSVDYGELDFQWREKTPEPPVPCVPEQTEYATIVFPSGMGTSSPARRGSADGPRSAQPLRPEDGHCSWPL

[2] = molecular target: T1, PE-labeled human PD-L1-Ig binding to Jurkat cell line over-expressing human PD-1 (Jurkat-PD-1); assay: Jurkat-PD-1 Cell Binding High-Content Screening Assay (CBA): Method 2 (presence and absence of tween-20); conditions: Jurkat-PD-1 cells, PE-labeled PD-L1-Ig 20 nM; presence or absence of tween-20 not given; head μM; read-out: CBA Method 2 μM
Method in brief: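 Compounds incubated with Jurkat cells overexpressing human PD-1 for 2 h at 37° C, tested with and without tween-20 to flag aggregation. PE-labeled human PD-L1-Ig (20 nM final) added in DMEM/10% FCS; binding read by high-content imaging.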

Structure (SMILES)	IC50 [1]	IC50 [2]
CC(=O)Nc1ccc(-c2ccc(C[C@@H]3NC(=O)[C@H](Cc4cccc(C(F)(F)F)c4)NC(=O)[C@H](CC(=O)O)NC(=O)[C@H](Cc4ccc(C(=O)O)cc4)NC(=O)[C@H]([C@H](C)N)NC(=O)CSC[C@@H](C(=O)N[C@@H](CCN)C(N)=O)NC(=O)[C@H](CCC(N)=O)NC(=O)[C@H](C(C)C)NC(=O)[C@H](CC4CCCCC4)NC(=O)[C@H](CCN)NC(=O)[C@@H](CC(C)C)NC(=O)[C@H](C)N(C)C(=O)[C@H](Cc4ccc(C(N)=O)cc4)NC(=O)[C@H](Cc4ccc(-c5ccccc5)cc4)NC3=O)cc2)cc1 [Example 5073] ({CH2CO}-[Abu(3S-NH2)][Phe(4-COOH)]D[Phe(3-CF3)][Bip(4'-NHAc)][Bip][Phe(4-CONH2)][NMeA][dL][Dab][Cha]VQC[Dab]-NH2; thioether N-14)	0.0059 µM	0.005 µM
CC(C)C[C@H]1NC(=O)[C@H](C)N(C)C(=O)[C@H](CCC(N)=O)NC(=O)[C@H](Cc2ccc(-c3ccccc3)cc2)NC(=O)[C@H](Cc2ccc(C(=O)O)cc2)NC(=O)[C@H](Cc2cccc(C(F)(F)F)c2)NC(=O)[C@H](CCNC(=O)CC(=O)O)NC(=O)[C@H](Cc2ccc(C(=O)O)cc2)NC(=O)[C@H](CN2CCOCC2)NC(=O)CSC[C@@H](C(=O)N[C@@H](CCN)C(N)=O)NC(=O)[C@H](CCCN)NC(=O)[C@H](C(C)C)NC(=O)[C@H](CC2CCCCC2)NC(=O)[C@H](CCN)NC1=O [Example 5075] ({CH2CO}-[Ala(morpholin-4-yl)][Phe(4-COOH)][Dab](Malonyl)[Phe(3-CF3)][Phe(4-COOH)][Bip]Q[NMeA][dL][Dab][Cha]V[Orn]C[Dab]-NH2; thioether N-14)	0.128 µM	0.372 µM
CC(C)C[C@H]1NC(=O)[C@H](C)N(C)C(=O)[C@H](CCC(N)=O)NC(=O)[C@H](Cc2ccc(-c3ccccc3)cc2)NC(=O)[C@H](Cc2ccc(C(=O)O)cc2)NC(=O)[C@H](Cc2cccc(C(F)(F)F)c2)NC(=O)[C@H](CC(=O)NS(=O)(=O)c2ccc(Cl)cc2)NC(=O)[C@H](Cc2ccc(C(=O)O)cc2)NC(=O)[C@H](CN2CCOCC2)NC(=O)CSC[C@@H](C(=O)N[C@@H](CCN)C(N)=O)NC(=O)[C@H](CCCN)NC(=O)[C@H](C(C)C)NC(=O)[C@H](CC2CCCCC2)NC(=O)[C@H](CCN)NC1=O [Example 5078] ({CH2CO}-[Ala(morpholin-4-yl)][Phe(4-COOH)][X2][Phe(3-CF3)][Phe(4-COOH)][Bip]Q[NMeA][dL][Dab][Cha]V[Orn]C[Dab]-NH2; thioether N-14)	0.533 µM	0.264 µM
CC(C)C[C@H]1NC(=O)[C@H](C)N(C)C(=O)[C@H](CCC(N)=O)NC(=O)[C@H](Cc2ccc(-c3ccccc3)cc2)NC(=O)[C@H](Cc2ccc(C(=O)O)cc2)NC(=O)[C@H](Cc2cccc(C(F)(F)F)c2)NC(=O)[C@H](CC(=O)NS(=O)(=O)c2ccc(F)cc2)NC(=O)[C@H](Cc2ccc(C(=O)O)cc2)NC(=O)[C@H](CN2CCOCC2)NC(=O)CSC[C@@H](C(=O)N[C@@H](CCN)C(N)=O)NC(=O)[C@H](CCCN)NC(=O)[C@H](C(C)C)NC(=O)[C@H](CC2CCCCC2)NC(=O)[C@H](CCN)NC1=O [Example 5079] ({CH2CO}-[Ala(morpholin-4-yl)][Phe(4-COOH)][X14][Phe(3-CF3)][Phe(4-COOH)][Bip]Q[NMeA][dL][Dab][Cha]V[Orn]C[Dab]-NH2; thioether N-14)	0.138 µM	0.229 µM
CC(C)C[C@H]1NC(=O)[C@H](C)N(C)C(=O)[C@H](CCC(N)=O)NC(=O)[C@H](Cc2ccc(-c3ccccc3)cc2)NC(=O)[C@H](Cc2ccc(C(=O)O)cc2)NC(=O)[C@H](Cc2cccc(C(F)(F)F)c2)NC(=O)[C@H](CC(=O)NS(=O)(=O)c2ccccc2Cl)NC(=O)[C@H](Cc2ccc(C(=O)O)cc2)NC(=O)[C@H](CN2CCOCC2)NC(=O)CSC[C@@H](C(=O)N[C@@H](CCN)C(N)=O)NC(=O)[C@H](CCCN)NC(=O)[C@H](C(C)C)NC(=O)[C@H](CC2CCCCC2)NC(=O)[C@H](CCN)NC1=O [Example 5080] ({CH2CO}-[Ala(morpholin-4-yl)][Phe(4-COOH)][X6][Phe(3-CF3)][Phe(4-COOH)][Bip]Q[NMeA][dL][Dab][Cha]V[Orn]C[Dab]-NH2; thioether N-14)	0.224 µM	0.332 µM
CC(C)C[C@H]1NC(=O)[C@H](C)N(C)C(=O)[C@H](CCC(N)=O)NC(=O)[C@H](Cc2ccc(-c3ccccc3)cc2)NC(=O)[C@H](Cc2ccc(C(=O)O)cc2)NC(=O)[C@H](Cc2cccc(C(F)(F)F)c2)NC(=O)[C@H](CC(=O)NS(=O)(=O)c2ccc(Cl)cc2F)NC(=O)[C@H](Cc2ccc(C(=O)O)cc2)NC(=O)[C@H](CN2CCOCC2)NC(=O)CSC[C@@H](C(=O)N[C@@H](CCN)C(N)=O)NC(=O)[C@H](CCCN)NC(=O)[C@H](C(C)C)NC(=O)[C@H](CC2CCCCC2)NC(=O)[C@H](CCN)NC1=O [Example 5081] ({CH2CO}-[Ala(morpholin-4-yl)][Phe(4-COOH)][X1][Phe(3-CF3)][Phe(4-COOH)][Bip]Q[NMeA][dL][Dab][Cha]V[Orn]C[Dab]-NH2; thioether N-14)	0.173 µM	0.113 µM

Further molecules by falling IC50 [1], results first:

IC50 [1]	IC50 [2]	Structure (SMILES)
0.463 µM	0.111 µM	CC(C)C[C@H]1NC(=O)[C@H](C)N(C)C(=O)[C@H](CCC(N)=O)NC(=O)[C@H](Cc2ccc(-c3ccccc3)cc2)NC(=O)[C@H](Cc2ccc(C(=O)O)cc2)NC(=O)[C@H](Cc2cccc(C(F)(F)F)c2)NC(=O)[C@H](CCNC(=O)CN(CC(=O)O)CC(=O)O)NC(=O)[C@H](Cc2ccc(C(=O)O)cc2)NC(=O)[C@H](CN2CCOCC2)NC(=O)CSC[C@@H](C(=O)N[C@@H](CCN)C(N)=O)NC(=O)[C@H](CCCN)NC(=O)[C@H](C(C)C)NC(=O)[C@H](CC2CCCCC2)NC(=O)[C@H](CCN)NC1=O [Example 5076] ({CH2CO}-[Ala(morpholin-4-yl)][Phe(4-COOH)][Dab](NTA)[Phe(3-CF3)][Phe(4-COOH)][Bip]Q[NMeA][dL][Dab][Cha]V[Orn]C[Dab]-NH2; thioether N-14)
0.345 µM	0.338 µM	CC(C)C[C@H]1NC(=O)[C@H](C)N(C)C(=O)[C@H](CCC(N)=O)NC(=O)[C@H](Cc2ccc(-c3ccccc3)cc2)NC(=O)[C@H](Cc2ccc(C(=O)O)cc2)NC(=O)[C@H](Cc2cccc(C(F)(F)F)c2)NC(=O)[C@H](CC(=O)NS(=O)(=O)c2ccccc2F)NC(=O)[C@H](Cc2ccc(C(=O)O)cc2)NC(=O)[C@H](CN2CCOCC2)NC(=O)CSC[C@@H](C(=O)N[C@@H](CCN)C(N)=O)NC(=O)[C@H](CCCN)NC(=O)[C@H](C(C)C)NC(=O)[C@H](CC2CCCCC2)NC(=O)[C@H](CCN)NC1=O [Example 5077] ({CH2CO}-[Ala(morpholin-4-yl)][Phe(4-COOH)][X7][Phe(3-CF3)][Phe(4-COOH)][Bip]Q[NMeA][dL][Dab][Cha]V[Orn]C[Dab]-NH2; thioether N-14)
0.0401 µM	0.0267 µM	CCCC[C@@H]1NC(=O)CSC[C@@H](C(=O)N[C@@H](CCN)C(N)=O)NC(=O)[C@H](CCC(=O)O)NC(=O)[C@H](C(C)C)NC(=O)[C@H](CC2CCCCC2)NC(=O)[C@H](CCN)NC(=O)[C@@H](CC(C)C)NC(=O)[C@H](C)N(C)C(=O)[C@H](Cc2ccc(OCC(=O)O)cc2)NC(=O)[C@H](Cc2ccc(-c3ccccc3)cc2)NC(=O)[C@H](Cc2ccc(OCC(=O)O)cc2)NC(=O)[C@H](Cc2cccc(C(F)(F)F)c2)NC(=O)[C@H](CC(=O)O)NC(=O)[C@H](Cc2ccc(-c3ccc(C(=O)O)cc3)cc2)NC1=O [Example 5074] ({CH2CO}-[Nle][Bip(4'-COOH)]D[Phe(3-CF3)]Y(Carboxymethyl)[Bip]Y(Carboxymethyl)[NMeA][dL][Dab][Cha]VEC[Dab]-NH2; thioether N-14)
0.0315 µM	0.01 µM	CC(C)C[C@H]1NC(=O)[C@H](C)N(C)C(=O)[C@H](CCCN)NC(=O)[C@H](Cc2ccc(-c3ccccc3)cc2)NC(=O)[C@H](Cc2ccc(-c3ccc(C(=O)O)cc3)cc2)NC(=O)[C@H](Cc2cccc(C(F)(F)F)c2)NC(=O)[C@H](CC(=O)O)NC(=O)[C@H](Cc2ccc(-c3ccc(C(=O)O)cc3)cc2)NC(=O)[C@H](Cc2ccc(OCC(=O)O)cc2)NC(=O)CSC[C@@H](C(=O)N[C@@H](CCN)C(N)=O)NC(=O)[C@H](CCC(=O)O)NC(=O)[C@H](C(C)C)NC(=O)[C@H](CC2CCCCC2)NC(=O)[C@H](CCN)NC1=O [Example 5085] ({CH2CO}-Y(Carboxymethyl)[Bip(4'-COOH)]D[Phe(3-CF3)][Bip(4'-COOH)][Bip][Orn][NMeA][dL][Dab][Cha]VEC[Dab]-NH2; thioether N-14)
0.0243 µM	0.0332 µM	CC(=O)Nc1ccc(-c2ccc(C[C@@H]3NC(=O)[C@H](Cc4cccc(C(F)(F)F)c4)NC(=O)[C@H](CC(=O)O)NC(=O)[C@H](Cc4ccc(-c5ccc(C(=O)O)cc5)cc4)NC(=O)[C@H](Cc4ccc(OCC(=O)O)cc4)NC(=O)CSC[C@@H](C(=O)N[C@@H](CCN)C(N)=O)NC(=O)[C@H](CCC(=O)O)NC(=O)[C@H](C(C)C)NC(=O)[C@H](CC4CCCCC4)NC(=O)[C@H](CCN)NC(=O)[C@@H](CC(C)C)NC(=O)[C@H](C)N(C)C(=O)[C@H](CCCN)NC(=O)[C@H](Cc4ccc(-c5ccccc5)cc4)NC3=O)cc2)cc1 [Example 5084] ({CH2CO}-Y(Carboxymethyl)[Bip(4'-COOH)]D[Phe(3-CF3)][Bip(4'-NHAc)][Bip][Orn][NMeA][dL][Dab][Cha]VEC[Dab]-NH2; thioether N-14)
